What was measured:
[1] = system: ablation nephropathic rats; assay: Proteinuria in 5/6 nephrectomized (ablation nephropathic) rats; assay type: in vivo, Sprague Dawley rats; conditions: for 24-hour urinary excretion of protein: Weeks 9-16 post 5/6 nephrectomy, 762 nmoles/kg/day oral for 8 weeks, mean ± SEM
Method: Five-sixths nephrectomy was carried out as described by Morrison (11). Briefly, each animal was anaesthetized with 7% w/v chloral hydrate (0.4 g/kg, i.p.). An incision was made in the ventral abdominal wall to access the kidneys. Right nephrectomy was performed and the cranial and caudal third of the left kidney were cut off. Tissue adhesive (Histoccryl, B. Braun) was used to seal the cut ends of the left kidney and prevent bleeding. In this way 5/6 of the renal parenchyma was removed. This model results in focal and segmental glomerulosclerosis, resembling renal lesions in humans like oligomeganephronia, membranous nephropathy, minimal change nephritis, proliferative glomerulonephritis, analgesic nephropathy, diabetes mellitus, unilateral nephrectomy, cortical necrosis, and unilateral renal agenesis (9).
Following the operation, each animal was placed in a metabolic cage for 24 hours once a week for a duration of 8 weeks. The 24-hour urine output and the concentration of protein in the urine were measured. After the 8th week, the animals were randomly divided into two groups (8 animals per group). Animals in one of the group (the treatment group) were orally administered 762 nmoles/kg/day of des-Asp-angiotensin I dissolved in 0.5 ml of saline via a 1-ml syringe with a blunted needle for a period of 8 weeks. The dose of 762 nmoles/kg/day was calculated based on the maximum effective oral anti-cardiac hypertrophic dose (250 nmole per rat of average weight of 328 g) in the original parent patent. Animals in the other group (the control group) were similarly administered with 0.5 ml of saline. Weekly measurement of 24-hour urine output and the concentration of protein in the urine in these animals were carried out for another 8 weeks. The protocol was designed based on our preliminary observation that urinary excretion of protein in the 5/6 nephrectomized rats commenced to increase above the normal value in 7th to 8th week post nephrectomy. A repeat of the experiment with 12 nephrectomized rats per group was carried out.
Data were expressed as mean±SEM. […]

[2] = system: cardiac hypertrophy; conditions: rat of average weight of 328 g, from the original parent patent; cited from earlier work

des-Aspartate angiotensin I [des-Asp-angiotensin I]
24-hour urinary excretion of protein ([1]; 8 rats, first experiment, saline control 37.2 ± 2.3, p = 0.024): *28.7 ± 2.5 mg | 24-hour urinary excretion of protein ([1]; 12 rats, repeat experiment, saline control 51.7 ± 4.7, p = 0.048): *39.6 ± 3.3 mg | Anti-proteinuric action (progressive development of proteinuria) ([1]; ablation nephropathic rats, oral dose of 762 nmoles/kg/day): effective agent in attenuating the progressive development of proteinuria | Maximum effective oral anti-cardiac hypertrophic dose [2]: 250 nmole per rat

Reference: patent US20030086920A1, “Use of des-Aspartate-angiotensin I as an agent for the treatment and prevention of glomerulosclerosis and renal failure” (priority 2000, published 2003)
